# Where two headings read alike, the source gives them in different places.
# Legend:
# human PBMCs [1] = type: cell-based
# [2] = Kinetic solubility measurement; type: physicochemical; conditions: for solubility at 2 h: phosphate-buffered saline, aqueous buffer, kinetic from dmso stock, kinetic, PBS pH 7.4, 2% DMSO, 2 h room temperature
# Method: The content of DMSO in all solutions was fixed to 2% by adding the respective amounts of DMSO. The column used was Waters Acquity UPLC BEH C18 (1.7 μm, 2.1 × 50 mm^2). […] The column was thermostated at 40 °C.
# MEC1 cells = test: PBMC cytotoxicity against MEC1 cancer cells; type: cell-based, human; conditions: PBMCs stimulated 18 h, 1 μM; 4 h coincubation, effector:target 40:1
# Method: (§1) K562 cells are a chronic myelogenous leukemia cell line (Cat. code: CCL-243; ATCC, Manassas, VA)[60] and MEC1 cells are a B-chronic lymphocytic leukemia cell line (Cat. code: ACC 497; DSMZ GmbH, Braunschweig, Germany).[61]
# (§2) The PBMC cytotoxicity assays using K562 and MEC1 cells were performed as described previously, with some modifications.[64] PBMCs were seeded (4 × 10^5 cells/well) in duplicate in 96-well U-bottom plates and treated with the compounds (1 nM–1 μM) or vehicle (0.1% DMSO) for 18 h. […] Cells that were positive for both CFSE and Sytox blue were defined as dead K562 and MEC1 cells. The gating strategy is described in Figure S4. PBMCs alone and CFSE-labeled cancer cells alone were also treated with the compounds at the same concentrations and stained with Sytox blue to exclude any direct cytotoxicity of the compounds toward the PBMCs and cancer cells. Statistical significance was determined with one-way ANOVA with subsequent Bonferroni’s multiple comparisons test.
# NIH/OlaHsd mice = test: Mouse immunization with OVA, OVA-specific serum antibodies (ELISA); type: in vivo; conditions: s.c. days 0, 21, 42; OVA 10 μg + compound 50 μg; 7 days after last dose
# Method: NIH/OlaHsd inbred mice were raised at the Institute of Immunology, Croatia. All mice used were females, from 2.0 to 2.5 months old. During the experimental period, the mice were housed in the Animal Facility of the Institute of Immunology, with food and water provided ad libitum.
# Sex-matched NIH/OlaHsd mice (five per group) were immunized subcutaneously into the tail base with OVA (10 μg; Serva, Germany) alone or plus the compounds (50 μg) on days 0, 21, and 42. The injection volume in all of the experimental groups was 0.1 mL per mouse. On the seventh day after the second booster dose, the mice were anesthetized with i.p. application of ketamine/xylazine (25 mg/kg each) prior to blood collection from the axillary plexus. Individual sera from each animal were decomplemented at 56 °C for 35 min and then stored at −20 °C until tested.
# The levels of the OVA-specific total IgG, IgG1, and IgG2a in mice sera were determined by ELISA. Briefly, high-binding ELISA plates (Costar) were coated with a 15 μg/mL solution of OVA (Serva, Germany) in carbonate buffer (pH 9.6). Nonspecific antibody binding was blocked by 0.5% w/v bovine serum albumin in PBS-T (0.05% [v/v] Tween 20 in PBS) for 2 h at 37 °C. After washing, five serial dilutions of mice sera and standard preparations were added in duplicates. Plates were incubated overnight at room temperature, washed, and analyzed for OVA-specific IgG levels by incubation with HRP-conjugated goat anti-mouse IgG (2 h at 37 °C; Bio-Rad Laboratories), and then after washing, with 0.6 mg/mL o-phenylenediaminedihydrochloride solution in citrate-phosphate buffer, pH 5.0, with 0.5 μL 30% H2O2/mL for 30 min at room temperature in the dark. The enzymatic reaction was stopped with 12.5% H2SO4, and absorbance at 492 nm was measured using a microplate reader (Thermo Fisher Scientific, Waltham, MA).
# For the determination of OVA-specific IgG1 and IgG2a, the plates were incubated with biotin-conjugated rat anti-mouse IgG1 or IgG2a (2 h at 37 °C; PharMingen, Becton Dickinson) and subsequently with streptavidin-peroxidase (Pharmingen) for 2 h at 37 °C. After washing, the substrate solution was added and incubated for 30 min at room temperature in the dark, as described above. The enzymatic reaction was stopped with 12.5% H2SO4 and absorbance at 492 nm was measured using a microplate reader. The relative quantities of antibodies were determined by parallel line assays using appropriate standard preparations of anti-OVA IgG, anti-OVA IgG1, and anti-OVA IgG2a antibodies with voluntarily assigned 20.000 AU/mL, 400.000 AU/mL, and 5000 AU/mL, respectively.[65] Statistical significance was determined with one-way ANOVA with subsequent Dunnett’s multiple comparisons test.
# K562 cells = test: PBMC cytotoxicity against K562 cancer cells; type: cell-based; conditions: for cytolytic activity of PBMCs against K562 cells: PBMCs stimulated 18 h, 1 μM, 4 h coincubation, effector:target 40:1
# Method: as §1, §2
# NOD2 = target: T1, NOD2 (Homo sapiens, UniProt Q9HC29); test: NF-κB transcriptional activity (SEAP reporter) in HEK-Blue NOD2 cells; type: cell-based; conditions: 18 h; for EC50: eight concentrations 1 nM to 10 μM, NA, not active
# T1 construct: host or cells: HEK-Blue NOD2 (HEK293-derived)
# T1 sequence (Q9HC29 whole entry): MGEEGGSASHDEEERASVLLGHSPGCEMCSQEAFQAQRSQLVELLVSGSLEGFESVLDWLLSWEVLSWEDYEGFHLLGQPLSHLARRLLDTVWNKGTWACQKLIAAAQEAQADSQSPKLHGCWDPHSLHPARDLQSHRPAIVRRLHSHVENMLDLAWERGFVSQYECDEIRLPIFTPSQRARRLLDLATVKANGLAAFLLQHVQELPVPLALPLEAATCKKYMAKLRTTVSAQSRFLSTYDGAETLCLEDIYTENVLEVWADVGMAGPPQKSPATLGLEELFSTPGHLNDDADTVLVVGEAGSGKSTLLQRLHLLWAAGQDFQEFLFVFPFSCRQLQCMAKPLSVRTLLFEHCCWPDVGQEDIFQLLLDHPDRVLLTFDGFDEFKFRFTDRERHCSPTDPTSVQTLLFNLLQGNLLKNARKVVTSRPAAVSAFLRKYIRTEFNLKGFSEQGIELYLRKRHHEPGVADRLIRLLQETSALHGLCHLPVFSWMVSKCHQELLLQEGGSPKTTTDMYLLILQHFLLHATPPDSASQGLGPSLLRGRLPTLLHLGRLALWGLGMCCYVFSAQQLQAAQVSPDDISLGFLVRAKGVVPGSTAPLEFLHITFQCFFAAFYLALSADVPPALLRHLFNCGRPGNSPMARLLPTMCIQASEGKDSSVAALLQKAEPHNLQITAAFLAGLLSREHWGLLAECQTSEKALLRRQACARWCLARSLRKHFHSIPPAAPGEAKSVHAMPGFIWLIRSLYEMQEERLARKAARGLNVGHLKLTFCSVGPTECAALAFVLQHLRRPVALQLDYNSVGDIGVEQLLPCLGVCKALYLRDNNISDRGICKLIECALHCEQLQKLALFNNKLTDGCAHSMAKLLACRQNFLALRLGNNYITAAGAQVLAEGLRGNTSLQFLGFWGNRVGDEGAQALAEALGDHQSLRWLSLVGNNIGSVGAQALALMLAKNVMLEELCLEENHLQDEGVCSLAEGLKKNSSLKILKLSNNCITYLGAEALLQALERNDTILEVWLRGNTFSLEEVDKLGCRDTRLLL
# Excerpt: (§3) HEK-Blue NOD1 (Cat. code: hkb-hnod1), NOD2 (Cat. code: hkb-hnod2), and TLR7 (Cat. code: hkb-htlr7) cell lines (Invivogen, San Diego, CA) are derived from HEK293 cells by co-transfection of the hNOD1, hNOD2, or hTLR7 genes, respectively, and a nuclear factor-κB (NF-κB)-inducible secreted embryonic alkaline phosphatase (SEAP) reporter gene. Following activation of the respective receptors, the resulting NF-κB induces the production of SEAP, the levels of which can be quantified colorimetrically. […] All of the subsequent passages were cultured in medium additionally supplemented with 100 μg/mL Zeocin (Invivogen) and 30 μg/mL Blasticidin (Invivogen) for HEK-Blue NOD1 and NOD2 cells, or with 100 μg/mL Zeocin (Invivogen) and 10 μg/mL Blasticidin (Invivogen) for HEK-Blue TLR7 cells.
# (§4) After 18 h of incubation (37 °C, 5% CO2), SEAP activity was determined spectrophotometrically as absorbance at 630 nm (BioTek Synergy microplate reader; Winooski, VT). EC50 values were calculated using the Prism software (version 9; GraphPad Software, CA).
# human PBMCs [3] = test: Cytokine release from peripheral blood mononuclear cells; type: cell-based; conditions: 1 μM, 18 h
# Method: Human PBMCs from healthy and consenting donors were isolated from heparinized blood by density gradient centrifugation using Ficoll-Paque (Pharmacia, Sweden).
# Peripheral blood mononuclear cells were seeded (1 × 10^6 cells/mL) in 24-well plates in 500 μL of growth medium and treated with the compounds (1 μM), lipopolysaccharide (LPS; 1 μg/mL), or the corresponding vehicle (0.1% DMSO). Cell-free supernatants were collected after 18 h of incubation (37 °C, 5% CO2) and stored at −80 °C until tested. Cytokine production was determined with BD Cytometric Bead Array human inflammatory cytokines kit (BD Bioscience) on an Attune NxT flow cytometer (Thermo Fisher Scientific, Waltham, MA). Standard curves were generated using recombinant cytokines contained in the kit. The data were analyzed using the FlowJo (Tree Star, Inc., Ashland, OR) and Prism (GraphPad, San Diego, CA) software. Statistical significance was determined with one-way ANOVA with subsequent Bonferroni’s multiple comparisons test.
# TLR7 = target: T2, TLR7 (Homo sapiens, UniProt Q9NYK1); test: NF-κB transcriptional activity (SEAP reporter) in HEK-Blue TLR7 cells; type: cell-based; conditions: for EC50: HEK-Blue TLR7 cells, 18 h, eight concentrations 1 nM to 10 μM, NA, not active; for fold improved TLR7 activity over 1: ratio of EC50 values in HEK-Blue TLR7 cells
# T2 construct: host or cells: HEK-Blue TLR7 (HEK293-derived)
# T2 sequence (Q9NYK1 27-1049): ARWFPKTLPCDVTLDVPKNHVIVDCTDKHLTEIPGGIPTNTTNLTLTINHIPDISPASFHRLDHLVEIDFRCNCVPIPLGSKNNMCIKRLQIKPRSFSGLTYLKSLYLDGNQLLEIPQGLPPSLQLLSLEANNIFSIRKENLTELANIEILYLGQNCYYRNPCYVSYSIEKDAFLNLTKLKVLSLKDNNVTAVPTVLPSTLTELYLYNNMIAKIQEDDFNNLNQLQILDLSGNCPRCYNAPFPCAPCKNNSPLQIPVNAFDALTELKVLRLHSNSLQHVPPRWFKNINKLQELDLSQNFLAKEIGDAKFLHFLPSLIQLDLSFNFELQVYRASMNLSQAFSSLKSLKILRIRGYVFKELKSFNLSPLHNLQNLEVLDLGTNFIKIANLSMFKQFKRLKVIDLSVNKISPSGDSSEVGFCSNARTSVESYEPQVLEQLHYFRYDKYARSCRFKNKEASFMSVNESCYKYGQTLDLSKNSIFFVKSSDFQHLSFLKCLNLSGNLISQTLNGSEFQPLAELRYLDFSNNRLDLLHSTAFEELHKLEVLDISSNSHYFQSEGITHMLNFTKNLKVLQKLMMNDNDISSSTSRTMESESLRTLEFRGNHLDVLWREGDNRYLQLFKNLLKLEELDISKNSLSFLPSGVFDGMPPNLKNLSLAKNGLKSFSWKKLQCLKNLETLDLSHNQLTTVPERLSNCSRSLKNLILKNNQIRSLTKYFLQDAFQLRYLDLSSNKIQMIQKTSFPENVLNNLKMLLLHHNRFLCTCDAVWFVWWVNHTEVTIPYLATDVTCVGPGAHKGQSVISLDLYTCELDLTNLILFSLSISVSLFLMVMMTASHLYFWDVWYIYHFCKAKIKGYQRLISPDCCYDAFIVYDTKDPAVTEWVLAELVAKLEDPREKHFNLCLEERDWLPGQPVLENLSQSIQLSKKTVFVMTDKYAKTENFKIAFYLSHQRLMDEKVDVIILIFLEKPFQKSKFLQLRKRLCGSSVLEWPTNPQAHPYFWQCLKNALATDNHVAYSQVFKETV
# Excerpt: as §3, §4
# RAW-Blue cells = test: NF-κB transcriptional activity in RAW-Blue cells with or without NOD2/TLR7 antagonists; type: cell-based, murine; conditions: 1 μM, 18 h; SG84 (5 μM), M5049 (1 μM)
# Method: After the first two passages, 200 μg/mL Zeocin (Invivogen) was added to the medium every other passage, to maintain the selection pressure.
# RAW-Blue cells were seeded (100,000 cells/well) in duplicate in 96-well plates in 200 μL of growth medium (without Normocin and Zeocin) and pretreated with a NOD2 antagonist SG84 (5 μM),[35] TLR7 antagonist M5049 (1 μM),[36] or both for 1 h, before the addition of compounds (1 μM) or the corresponding vehicle (0.1% DMSO). After 18 h of incubation (37 °C, 5% CO2), 10 μL of the induced supernatant was added to 90 μL of QUANTI-Blue solution (Invivogen). After 2 h of incubation (37 °C), SEAP activity was determined spectrophotometrically as absorbance at 630 nm (BioTek Synergy microplate reader; Winooski, VT). Statistical significance was determined with two-way ANOVA with subsequent Dunnett’s multiple comparisons test.
# [4] = tested 1 nM-1 μM, cancer cell line not specified (K562 or MEC1, Figure S5)
smiles,measurement,setting,value
"CCCCOc1nc(N)c2nc(O)n(Cc3ccc(C(=O)NCCOCCNC(=O)CC[C@@H](NC(=O)[C@@H](NC(=O)CNC(=O)/C=C/c4ccc(O)c(OC)c4)C(C)C)C(=O)OCC)cc3)c2n1 [Compound 4, Ethyl N5-(2-(2-(4-((6-amino-2-butoxy-8-hydroxy-9H-purin-9-yl)methyl)benzamido)ethoxy)ethyl)-N2-((E)-3-(4-hydroxy-3-methoxyphenyl)acryloyl)glycyl-L-valyl-D-glutaminate]","Genes in KEGG pathway, 4-enriched",human PBMCs [1]; Chemokine signaling pathway (total 182),40
same,"Genes in KEGG pathway, 4-enriched",human PBMCs [1]; Hematopoietic cell lineage (total 97),31
same,"Genes in KEGG pathway, 4-enriched",human PBMCs [1]; Influenza A (total 182),33
same,"Genes in KEGG pathway, 4-enriched",human PBMCs [1]; NF-kappa B signaling pathway (total 107),25
same,"transcription of IFN-γ and both IL-12 subunits (IL12A, IL12B)","human PBMCs [1]; PBMCs, 1 μM, 18 h",strongly upregulated
same,"transcription of IL-17A, IL-17F, IL-22 and IL-26","human PBMCs [1]; PBMCs, 1 μM, 18 h",induced transcription
same,"transcription of Th2-associated genes (IL-4, IL-5, IL-13, STAT6, GATA3)","human PBMCs [1]; PBMCs, 1 μM, 18 h",remained unchanged
same,number of significantly downregulated genes,"human PBMCs [1]; PBMCs, three donors, 1 μM, 18 h, FDR <0.05, fold-change <0.5",877
same,number of significantly upregulated genes,"human PBMCs [1]; PBMCs, three donors, 1 μM, 18 h, […]",962
same,"Genes in KEGG pathway, 4-enriched",human PBMCs [1]; Pathways in cancer (total 395),56
same,"Genes in KEGG pathway, 4-enriched",human PBMCs [1]; Phagosome (total 168),33
same,"Genes in KEGG pathway, 4-enriched",human PBMCs [1]; Rheumatoid arthritis (total 99),25
same,"Genes in KEGG pathway, 4-enriched",human PBMCs [1]; TNF signaling pathway (total 115),28
same,"Genes in KEGG pathway, 4-enriched",human PBMCs [1]; Transcriptional misregulation in cancer (total 204),37
same,fold higher solubility of 4 than 3,"[2]; kinetic solubility, Table S2",approximately 2 fold
same,solubility at 2 h,[2],58.2 µM
same,cytolytic activity of PBMCs against MEC1 cells,MEC1 cells,significantly enhanced
same,IgG2a/IgG1 ratio (Th1/Th2 polarization),NIH/OlaHsd mice,trend toward increased IgG2a/IgG1 ratios
same,OVA-specific IgG1 titers,NIH/OlaHsd mice,increased the titers
same,OVA-specific IgG2a titers,NIH/OlaHsd mice,increased the titers
same,serum OVA-specific IgG titers,NIH/OlaHsd mice,significantly higher
same,cytolytic activity of PBMCs against K562 cells,K562 cells,significantly enhanced
same,lowest concentration with significant effect on PBMC cytotoxicity,K562 cells; [4],10 nM
same,NOD2 activation at the highest concentration tested,NOD2; 10 μM,activated NOD2 only to a minor extent
same,EC50,NOD2,> 10000 nM
same,IL12p70 secretion,human PBMCs [3],induced secretion of IL12p70
same,"production of IL-1β, IL-6, IL-8, IL-10 and TNF",human PBMCs [3],considerably stronger effects compared to 3
same,EC50,TLR7,36 nM
same,fold improved TLR7 activity over 1,TLR7,10 fold
"CCCCOc1nc(N)c2nc(O)n(Cc3ccc(C(=O)NCCCCCC(=O)Oc4ccc(/C=C/C(=O)NCC(=O)N[C@H](C(=O)N[C@H](CCC(=O)OCC)C(=O)OCC)C(C)C)cc4OC)cc3)c2n1 [Compound 3, Diethyl ((E)-3-(4-((6-(4-((6-amino-2-butoxy-8-hydroxy-9H-purin-9-yl)methyl)benzamido)hexanoyl)-oxy)-3-methoxyphenyl)acryloyl)glycyl-L-valyl-D-glutamate]",RAW-Blue activity in the presence of NOD2 or TLR7 antagonist,RAW-Blue cells,decrease in activity after antagonizing TLR7 was more prominent
same,solubility at 2 h,[2],27.4 µM
same,cytolytic activity of PBMCs against MEC1 cells,MEC1 cells,significantly enhanced
same,cytolytic activity of PBMCs against K562 cells,K562 cells,significantly enhanced
same,concentration at which significant PBMC cytotoxicity was observed,K562 cells; [4],1000 nM
same,EC50,NOD2,114 nM
same,EC50,TLR7,161 nM
same,fold improved TLR7 activity over 1,TLR7,approximately 2 fold
"CCCCOc1nc(N)c2nc(O)n(Cc3ccc(C(=O)O)cc3)c2n1 [Compound 1, 4-((6-Amino-2-butoxy-8-hydroxy-9H-purin-9-yl)methyl)benzoic acid, reference compound]",EC50,TLR7,398 nM
"CCOC(=O)CC[C@@H](NC(=O)[C@@H](NC(=O)CNC(=O)/C=C/c1ccc(O)c(OC)c1)C(C)C)C(=O)OCC [Compound 2, Diethyl ((E)-3-(4-hydroxy-3-methoxyphenyl)acryloyl)glycyl-L-valyl-D-glutamate]",IL-8 production,human PBMCs [3],significant increase

# Source: paper PMC9706565, “Covalently Conjugated NOD2/TLR7 Agonists Are Potent and Versatile Immune Potentiators” (Journal of Medicinal Chemistry, 2022)
